In US8426202B2, “Cell culture medium” (Cellca GmbH, priority 2005, dated 2013):
Several values for one entry are separate records, joined by “and”; a condition that tells them apart may be missing. Equal values may be shown once.

How the values were obtained:
[1] = system: CHO cell line that expresses an antibody; assay: Batch experiment with the substances according to the invention (Example 1); format: cell-based, Chinese hamster; conditions: batch mode, substance 0.5-1 g/l, basal medium glucose 4.7 g/l, glutamine […]
Experimental: Cells were stored in the gas phase of liquid nitrogen. One to two ampoules were thawed in nutrient medium preheated to 37° C. and transferred to spinner bottles, shaking flasks or T-bottles. In the first few days of cultivation the medium was changed, depending on the clone.
Depending on the clone, cells were split either every second day or every third day or after two and three days alternately into new medium, i.e. a portion of the cell suspension was removed from culture and a smaller portion of the cell suspension was reused as inoculum for the next culture. This inoculum was made up with fresh prewarmed nutrient medium. Cells were incubated at 37° C. in an incubator with a CO2 atmosphere. An alternative for incubating cells was cultivation in an incubation chamber at 37° C., in this way cells were held in culture for several passages. A passage means a cultivation time of two to three days. At various points of time, cell suspension was taken from strain maintenance and used as inoculum for experiments. The experiments were carried out in various cultivation systems, for example in spinner bottles, T-bottles, shaking flasks, culture tubes or in controlled bioreactors.
(§1) Feed took place at regular intervals.

[2] = system: CHO cell line that expresses an antibody; assay: Fed-batch experiment with the substances according to the invention (Example 2, Table 2); format: cell-based, Chinese hamster; design: Viabil.: concentration or dose not given beside the values
Source text: as §1

Compound: NCCC[C@H](N)C(=O)O [Ornithine]
- Gln ([1]; day 0): 1.53 mM
- Glucose ([1]; day 0): 4.69 g/L
- Lactate ([1]; day 0): 0 g/L
- Specific Glutamin consumption (Gln/VCD) ([1]; day 0): 1.49
- Specific ammonia production (NH4/VCD) ([1]; day 0): 1.18
- Specific glucose consumption (Gluc/VCD) ([1]; day 0): 4.55
- Specific lactate production (Lac/VCD) ([1]; day 0): 0.00
- Viabil. ([1]; day 0): 96%
- Gln ([1]; day 3): 0.92 mM
- Glucose ([1]; day 3): 4.24 g/L
- Lactate ([1]; day 3): 0.71 g/L
- Specific Glutamin consumption (Gln/VCD) ([1]; day 3): 0.15
- Specific ammonia production (NH4/VCD) ([1]; day 3): 0.29
- Specific glucose consumption (Gluc/VCD) ([1]; day 3): 0.67
- Specific lactate production (Lac/VCD) ([1]; day 3): 0.11
- Viabil. ([1]; day 3): 97%
- Gln ([1]; day 6): 0.11 mM
- Glucose ([1]; day 6): 2.7 g/L
- Specific Glutamin consumption (Gln/VCD) ([1]; day 6): 0.00
- Specific ammonia production (NH4/VCD) ([1]; day 6): 0.06
- Specific glucose consumption (Gluc/VCD) ([1]; day 6): 0.06
- Specific lactate production (Lac/VCD) ([1]; day 6): 0.02
- Viabil. ([1]; day 6): 98%
- Gln ([1]; day 8): 0.37 mM
- Specific Glutamin consumption (Gln/VCD) ([1]; day 8): 0.02
- Specific ammonia production (NH4/VCD) ([1]; day 8): 0.14
- Specific glucose consumption (Gluc/VCD) ([1]; day 8): 0.09
- Specific lactate production (Lac/VCD) ([1]; day 8): 0.05
- Viabil. ([1]; day 8): 89%
- Gln ([1]; day 11): 0.46 mM
- Glucose ([1]; day 11): 0.53 g/L
- Lactate ([1]; day 11): 1.26 g/L
- Specific Glutamin consumption (Gln/VCD) ([1]; day 11): 0.03
- Specific ammonia production (NH4/VCD) ([1]; day 11): 0.22
- Specific glucose consumption (Gluc/VCD) ([1]; day 11): 0.04
- Specific lactate production (Lac/VCD) ([1]; day 11): 0.09
- Viabil. ([1]; day 11): 60%
- Viabil. ([2]; day 0, fed-batch): 91%
- Viabil. ([2]; day 2, fed-batch): 98% and 97%
- Viabil. ([2]; day 5, fed-batch): 96%
- Viabil. ([2]; day 8, fed-batch): 94%

Compound: O=C([O-])/C=C/C(=O)[O-].[Na+].[Na+] [Sodium fumarate]
- Gln ([1]; day 0): 1.53 mM
- Glucose ([1]; day 0): 4.69 g/L
- Lactate ([1]; day 0): 0 g/L
- NH4 ([1]; day 0): 1.22 mM
- Specific Glutamin consumption (Gln/VCD) ([1]; day 0): 1.49
- Specific ammonia production (NH4/VCD) ([1]; day 0): 1.18
- Specific glucose consumption (Gluc/VCD) ([1]; day 0): 4.55
- Specific lactate production (Lac/VCD) ([1]; day 0): 0.00
- Total Cell Density TCD ([1]; day 0): 1.07 E5/ml
- Viabil. ([1]; day 0): 96%
- Viable Cell Density (VCD) ([1]; day 0): 1.03 E5/ml
- Gln ([1]; day 3): 0.72 mM
- Glucose ([1]; day 3): 3.98 g/L
- Lactate ([1]; day 3): 0.85 g/L
- NH4 ([1]; day 3): 1.84 mM
- Specific Glutamin consumption (Gln/VCD) ([1]; day 3): 0.10
- Specific ammonia production (NH4/VCD) ([1]; day 3): 0.26
- Specific glucose consumption (Gluc/VCD) ([1]; day 3): 0.57
- Specific lactate production (Lac/VCD) ([1]; day 3): 0.12
- Total Cell Density TCD ([1]; day 3): 7.1 E5/ml
- Viabil. ([1]; day 3): 99%
- Viable Cell Density (VCD) ([1]; day 3): 7 E5/ml
- Gln ([1]; day 6): 0.24 mM
- Glucose ([1]; day 6): 2.61 g/L
- Lactate ([1]; day 6): 1.19 g/L
- NH4 ([1]; day 6): 2.49 mM
- Specific Glutamin consumption (Gln/VCD) ([1]; day 6): 0.01
- Specific ammonia production (NH4/VCD) ([1]; day 6): 0.06
- Specific glucose consumption (Gluc/VCD) ([1]; day 6): 0.06
- Specific lactate production (Lac/VCD) ([1]; day 6): 0.03
- Total Cell Density TCD ([1]; day 6): 41.5 E5/ml
- Viabil. ([1]; day 6): 98%
- Viable Cell Density (VCD) ([1]; day 6): 40.6 E5/ml
- Gln ([1]; day 8): 0.37 mM
- Glucose ([1]; day 8): 1.68 g/L
- Lactate ([1]; day 8): 1.08 g/L
- NH4 ([1]; day 8): 2.58 mM
- Specific Glutamin consumption (Gln/VCD) ([1]; day 8): 0.02
- Specific ammonia production (NH4/VCD) ([1]; day 8): 0.14
- Specific glucose consumption (Gluc/VCD) ([1]; day 8): 0.09
- Specific lactate production (Lac/VCD) ([1]; day 8): 0.06
- Total Cell Density TCD ([1]; day 8): 22.3 E5/ml
- Viabil. ([1]; day 8): 86%
- Viable Cell Density (VCD) ([1]; day 8): 19.1 E5/ml
- Gln ([1]; day 11): 0.47 mM
- Glucose ([1]; day 11): 0.46 g/L
- Lactate ([1]; day 11): 1.46 g/L
- NH4 ([1]; day 11): 3.06 mM
- Specific Glutamin consumption (Gln/VCD) ([1]; day 11): 0.03
- Specific ammonia production (NH4/VCD) ([1]; day 11): 0.21
- Specific glucose consumption (Gluc/VCD) ([1]; day 11): 0.03
- Specific lactate production (Lac/VCD) ([1]; day 11): 0.10
- Total Cell Density TCD ([1]; day 11): 26.2 E5/ml
- Viabil. ([1]; day 11): 55%
- Viable Cell Density (VCD) ([1]; day 11): 14.3 E5/ml
- Total Cell Density TCD ([2]; day 0, fed-batch): 1.5 E5/ml
- Viabil. ([2]; day 0, fed-batch): 91%
- Viable Cell Density (VCD) ([2]; day 0, fed-batch): 1.37 E5/ml
- Total Cell Density TCD ([2]; day 2, fed-batch): 3.6 E5/ml
- Viabil. ([2]; day 2, fed-batch): 97%
- Viable Cell Density (VCD) ([2]; day 2, fed-batch): 3.5 E5/ml
- Total Cell Density TCD ([2]; day 5, fed-batch): 13.9 E5/ml and 13.2 E5/ml
- Viabil. ([2]; day 5, fed-batch): 96% and 97%
- Viable Cell Density (VCD) ([2]; day 5, fed-batch): 13.4 E5/ml and 12.8 E5/ml
- Total Cell Density TCD ([2]; day 8, fed-batch): 43.9 E5/ml and 43.8 E5/ml
- Viabil. ([2]; day 8, fed-batch): 92%
- Viable Cell Density (VCD) ([2]; day 8, fed-batch): 40.3 E5/ml and 40.2 E5/ml
